Test results from the kinase profiling compilation of Christmann-Franck et al. (2016).

Columns and labels:
Assay in all cases: radiometric filter-binding kinase assay
FGFR1 (human) = FGFR1 (human) (UniProt P11362)
PAK4 (human) = PAK4 (human) (UniProt O96013)
EPHB2 (human) = EPHB2 (human) (UniProt P29323)
IRAK4 (human) = IRAK4 (human) (UniProt Q9NWZ3)
AURKB (human) = AURKB (human) (UniProt Q96GD4)
MKNK1 (human) = MKNK1 (human) (UniProt Q9BUB5)
[1] = molecular target: STK11 CAB39 STRADA (human) (UniProt Q9Y376+Q7RTN6+Q15831)
IGF1R (human) = IGF1R (human) (UniProt P08069)
TTK (human) = TTK (human) (UniProt P33981)
MAP2K2 (human) = MAP2K2 (human) (UniProt P36507)
Chain of MAP2K2 (human) (P36507 whole entry, looked up): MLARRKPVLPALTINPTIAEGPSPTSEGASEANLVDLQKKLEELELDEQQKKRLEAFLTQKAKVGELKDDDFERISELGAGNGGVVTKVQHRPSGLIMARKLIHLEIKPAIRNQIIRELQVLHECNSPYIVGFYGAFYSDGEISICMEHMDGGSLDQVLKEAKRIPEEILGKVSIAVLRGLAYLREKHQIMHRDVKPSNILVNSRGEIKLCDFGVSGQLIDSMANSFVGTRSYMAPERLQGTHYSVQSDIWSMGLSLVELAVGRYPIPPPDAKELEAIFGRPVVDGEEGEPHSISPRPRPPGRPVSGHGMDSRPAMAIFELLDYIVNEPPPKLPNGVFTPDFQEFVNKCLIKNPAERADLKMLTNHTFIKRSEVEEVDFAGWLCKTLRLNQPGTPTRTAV

DAPK1 (human) = DAPK1 (human) (UniProt P53355)
SRPK1 (human) = SRPK1 (human) (UniProt Q96SB4)
TBK1 (human) = TBK1 (human) (UniProt Q9UHD2)
MAP3K11 (human) = MAP3K11 (human) (UniProt Q16584)
Chain of MAP3K11 (human) (Q16584 whole entry, looked up): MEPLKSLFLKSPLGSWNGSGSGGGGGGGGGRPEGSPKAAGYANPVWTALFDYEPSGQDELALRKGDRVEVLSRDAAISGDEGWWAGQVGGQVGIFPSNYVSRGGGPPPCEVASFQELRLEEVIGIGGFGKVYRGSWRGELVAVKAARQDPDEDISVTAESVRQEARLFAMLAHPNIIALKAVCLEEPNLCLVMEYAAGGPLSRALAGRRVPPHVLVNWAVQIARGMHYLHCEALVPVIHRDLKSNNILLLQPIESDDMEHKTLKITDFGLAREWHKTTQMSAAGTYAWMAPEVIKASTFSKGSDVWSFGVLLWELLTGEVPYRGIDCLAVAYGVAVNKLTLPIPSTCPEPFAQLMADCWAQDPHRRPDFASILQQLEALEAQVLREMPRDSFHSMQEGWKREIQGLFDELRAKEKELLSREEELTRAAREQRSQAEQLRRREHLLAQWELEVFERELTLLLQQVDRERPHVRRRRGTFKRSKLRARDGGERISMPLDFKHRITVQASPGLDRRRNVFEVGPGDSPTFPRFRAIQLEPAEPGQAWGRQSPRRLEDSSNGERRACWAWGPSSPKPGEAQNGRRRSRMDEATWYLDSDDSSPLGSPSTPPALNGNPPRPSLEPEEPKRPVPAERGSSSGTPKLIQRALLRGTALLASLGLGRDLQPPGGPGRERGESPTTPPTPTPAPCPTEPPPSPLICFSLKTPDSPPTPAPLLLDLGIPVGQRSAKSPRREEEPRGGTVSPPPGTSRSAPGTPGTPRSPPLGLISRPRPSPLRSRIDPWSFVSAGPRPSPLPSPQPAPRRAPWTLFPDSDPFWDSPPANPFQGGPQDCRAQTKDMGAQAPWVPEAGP

NEK2 (human) = NEK2 (human) (UniProt P51955)
Chain of NEK2 (human) (P51955 whole entry, looked up): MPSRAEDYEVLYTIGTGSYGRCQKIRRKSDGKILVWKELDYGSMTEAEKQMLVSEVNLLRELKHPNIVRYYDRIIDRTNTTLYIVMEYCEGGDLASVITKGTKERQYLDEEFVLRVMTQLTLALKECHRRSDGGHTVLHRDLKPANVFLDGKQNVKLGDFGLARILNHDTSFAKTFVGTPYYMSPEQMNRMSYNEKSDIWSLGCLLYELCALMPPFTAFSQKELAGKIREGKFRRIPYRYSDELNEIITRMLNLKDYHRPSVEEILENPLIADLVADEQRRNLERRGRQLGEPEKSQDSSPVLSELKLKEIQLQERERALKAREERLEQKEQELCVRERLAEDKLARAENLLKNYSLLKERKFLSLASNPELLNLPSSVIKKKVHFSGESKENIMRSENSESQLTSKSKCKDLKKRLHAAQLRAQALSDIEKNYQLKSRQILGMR

HIPK1 (human) = HIPK1 (human) (UniProt Q86Z02)
BTK (human) = BTK (human) (UniProt Q06187)
DYRK2 (human) = DYRK2 (human) (UniProt Q92630)
Chain of DYRK2 (human) (Q92630 whole entry, looked up): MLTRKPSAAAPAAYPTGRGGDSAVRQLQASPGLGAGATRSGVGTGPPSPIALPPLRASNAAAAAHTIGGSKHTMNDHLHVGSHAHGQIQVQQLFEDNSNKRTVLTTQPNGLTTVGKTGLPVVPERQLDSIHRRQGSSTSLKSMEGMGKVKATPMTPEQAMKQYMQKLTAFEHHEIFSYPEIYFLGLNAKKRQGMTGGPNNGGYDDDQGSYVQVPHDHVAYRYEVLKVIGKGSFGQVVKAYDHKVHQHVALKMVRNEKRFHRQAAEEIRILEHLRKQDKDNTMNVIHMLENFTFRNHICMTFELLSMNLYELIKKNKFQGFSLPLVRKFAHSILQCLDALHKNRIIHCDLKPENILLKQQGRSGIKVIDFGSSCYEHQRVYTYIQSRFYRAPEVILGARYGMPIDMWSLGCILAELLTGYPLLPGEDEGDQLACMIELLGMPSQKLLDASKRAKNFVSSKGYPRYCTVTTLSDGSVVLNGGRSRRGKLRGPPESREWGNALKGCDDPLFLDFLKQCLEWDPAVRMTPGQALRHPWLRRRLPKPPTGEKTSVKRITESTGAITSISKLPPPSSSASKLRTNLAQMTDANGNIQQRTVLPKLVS

[2] = tested on: PAK2 (human), Q13177 [T402E]
Chain of PAK2 (human), Q13177 [T402E] (Q13177 whole entry T402E, looked up): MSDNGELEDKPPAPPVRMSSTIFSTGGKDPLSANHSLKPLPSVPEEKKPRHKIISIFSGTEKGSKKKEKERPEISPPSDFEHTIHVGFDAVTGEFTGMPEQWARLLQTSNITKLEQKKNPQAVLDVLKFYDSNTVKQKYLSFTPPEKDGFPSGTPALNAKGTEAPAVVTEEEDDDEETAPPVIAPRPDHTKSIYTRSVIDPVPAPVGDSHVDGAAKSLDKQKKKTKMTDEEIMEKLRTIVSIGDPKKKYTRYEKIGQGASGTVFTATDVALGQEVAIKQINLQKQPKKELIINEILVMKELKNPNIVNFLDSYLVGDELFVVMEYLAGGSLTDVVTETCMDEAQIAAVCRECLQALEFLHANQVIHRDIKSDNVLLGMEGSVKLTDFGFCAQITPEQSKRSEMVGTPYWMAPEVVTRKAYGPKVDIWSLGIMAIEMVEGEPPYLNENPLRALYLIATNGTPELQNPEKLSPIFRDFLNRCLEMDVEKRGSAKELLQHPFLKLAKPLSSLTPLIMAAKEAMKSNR

PIM3 (human) = PIM3 (human) (UniProt Q86V86)
EEF2K (human) = EEF2K (human) (UniProt O00418)
JAK2 JH1 JH2 (human) = JAK2 JH1 JH2 (human) (UniProt O60674)
CAMKK2 (human) = CAMKK2 (human) (UniProt Q96RR4)
MAPK13 (human) = MAPK13 (human) (UniProt O15264)
Chain of MAPK13 (human) (O15264 whole entry, looked up): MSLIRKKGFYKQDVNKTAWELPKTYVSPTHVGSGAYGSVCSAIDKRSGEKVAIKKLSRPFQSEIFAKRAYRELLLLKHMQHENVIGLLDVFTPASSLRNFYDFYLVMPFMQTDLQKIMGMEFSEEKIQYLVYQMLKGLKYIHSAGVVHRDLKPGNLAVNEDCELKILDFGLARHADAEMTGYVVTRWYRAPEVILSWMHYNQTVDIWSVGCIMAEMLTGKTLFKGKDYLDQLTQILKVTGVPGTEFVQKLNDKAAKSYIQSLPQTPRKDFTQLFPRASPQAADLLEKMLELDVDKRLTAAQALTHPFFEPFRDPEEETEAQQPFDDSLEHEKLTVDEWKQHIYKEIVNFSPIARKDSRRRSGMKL

CSK (human) = CSK (human) (UniProt P41240)
BRSK1 (human) = BRSK1 (human) (UniProt Q8TDC3)
[3] = tested on: AKT1 (human), P31749 [S473D]
INSR (human) = INSR (human) (UniProt P06213)
MAP2K1 (human) = MAP2K1 (human) (UniProt Q02750)
EPHA2 (human) = EPHA2 (human) (UniProt P29317)
MAP2K6 (human) = MAP2K6 (human) (UniProt P52564)
Chain of MAP2K6 (human) (P52564 whole entry, looked up): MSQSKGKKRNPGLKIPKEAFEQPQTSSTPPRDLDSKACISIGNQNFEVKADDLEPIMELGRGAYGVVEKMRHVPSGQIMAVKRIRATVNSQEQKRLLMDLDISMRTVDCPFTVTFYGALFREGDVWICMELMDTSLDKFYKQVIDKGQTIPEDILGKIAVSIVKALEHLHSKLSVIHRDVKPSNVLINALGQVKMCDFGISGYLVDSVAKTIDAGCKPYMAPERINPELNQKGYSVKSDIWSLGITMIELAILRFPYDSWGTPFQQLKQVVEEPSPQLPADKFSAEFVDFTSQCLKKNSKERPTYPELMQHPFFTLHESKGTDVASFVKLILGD

MAPKAPK5 (human) = MAPKAPK5 (human) (UniProt Q8IW41)
PAK6 (human) = PAK6 (human) (UniProt Q9NQU5)
GSK3B (human) = GSK3B (human) (UniProt P49841)
LCK (mouse) = settings: accession and sequence are those of the human protein

Chain of MKNK1 (human) (Q9BUB5 whole entry, looked up): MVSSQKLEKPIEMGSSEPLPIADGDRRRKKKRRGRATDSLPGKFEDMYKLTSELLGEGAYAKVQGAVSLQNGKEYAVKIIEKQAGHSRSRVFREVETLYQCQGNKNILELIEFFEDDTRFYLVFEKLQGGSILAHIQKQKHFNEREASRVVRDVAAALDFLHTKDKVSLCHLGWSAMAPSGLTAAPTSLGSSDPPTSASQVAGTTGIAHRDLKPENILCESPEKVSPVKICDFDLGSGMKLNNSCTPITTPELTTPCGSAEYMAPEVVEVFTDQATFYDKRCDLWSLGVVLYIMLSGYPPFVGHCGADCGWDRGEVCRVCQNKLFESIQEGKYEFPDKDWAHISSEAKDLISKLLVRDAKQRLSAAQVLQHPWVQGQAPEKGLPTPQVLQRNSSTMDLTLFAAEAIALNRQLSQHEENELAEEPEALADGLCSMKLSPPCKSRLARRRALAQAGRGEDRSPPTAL
Chain of FGFR1 (human) (P11362 whole entry, looked up): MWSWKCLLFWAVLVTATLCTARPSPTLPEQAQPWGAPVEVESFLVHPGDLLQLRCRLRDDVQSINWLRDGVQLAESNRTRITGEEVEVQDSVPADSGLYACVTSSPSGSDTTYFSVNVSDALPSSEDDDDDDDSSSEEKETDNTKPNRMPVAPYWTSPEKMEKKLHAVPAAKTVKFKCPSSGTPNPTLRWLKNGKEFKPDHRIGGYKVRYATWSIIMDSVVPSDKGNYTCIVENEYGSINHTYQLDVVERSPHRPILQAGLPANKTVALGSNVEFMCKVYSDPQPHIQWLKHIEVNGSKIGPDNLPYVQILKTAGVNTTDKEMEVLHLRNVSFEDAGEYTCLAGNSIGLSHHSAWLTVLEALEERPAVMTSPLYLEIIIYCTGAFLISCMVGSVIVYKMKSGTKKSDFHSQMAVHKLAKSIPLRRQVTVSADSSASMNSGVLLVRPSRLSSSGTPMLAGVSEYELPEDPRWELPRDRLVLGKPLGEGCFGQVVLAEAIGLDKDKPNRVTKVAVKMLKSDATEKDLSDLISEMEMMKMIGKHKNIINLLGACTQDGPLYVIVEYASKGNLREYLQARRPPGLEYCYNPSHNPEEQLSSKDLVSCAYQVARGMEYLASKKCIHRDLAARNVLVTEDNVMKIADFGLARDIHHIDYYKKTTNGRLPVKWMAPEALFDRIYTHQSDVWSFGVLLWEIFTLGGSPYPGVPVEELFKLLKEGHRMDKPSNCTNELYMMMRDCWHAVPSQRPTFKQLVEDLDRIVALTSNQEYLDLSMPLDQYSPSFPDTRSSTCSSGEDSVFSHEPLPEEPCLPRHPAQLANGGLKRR

Structure (SMILES): O=C1c2ccccc2-c2n[nH]c3cccc1c23
- residual activity (FGFR1 (human); compound 1.0 µM): 52%
- residual activity (FGFR1 (human); compound 10.0 µM): 22%
- residual activity (PAK4 (human); compound 1.0 µM): 80%
- residual activity (PAK4 (human); compound 10.0 µM): 25%
- residual activity (EPHB2 (human); compound 1.0 µM): 111%
- residual activity (EPHB2 (human); compound 10.0 µM): 47%
- residual activity (IRAK4 (human); compound 1.0 µM): 33%
- residual activity (IRAK4 (human); compound 10.0 µM): 8%
- residual activity (AURKB (human); compound 1.0 µM): 15%
- residual activity (AURKB (human); compound 10.0 µM): 13%
- residual activity (MKNK1 (human); compound 1.0 µM): 83%
- residual activity (MKNK1 (human); compound 10.0 µM): 41%
- residual activity ([1]; compound 1.0 µM): 40%
- residual activity ([1]; compound 10.0 µM): 18%
- residual activity (IGF1R (human); compound 1.0 µM): 55%
- residual activity (IGF1R (human); compound 10.0 µM): 11%
- residual activity (TTK (human); compound 1.0 µM): 74%
- residual activity (TTK (human); compound 10.0 µM): 57%
- residual activity (MAP2K2 (human); compound 1.0 µM): 64%
- residual activity (MAP2K2 (human); compound 10.0 µM): 21%
- residual activity (DAPK1 (human); compound 1.0 µM): 50%
- residual activity (DAPK1 (human); compound 10.0 µM): 37%
- residual activity (SRPK1 (human); compound 1.0 µM): 91%
- residual activity (SRPK1 (human); compound 10.0 µM): 77%
- residual activity (TBK1 (human); compound 1.0 µM): 76%
- residual activity (TBK1 (human); compound 10.0 µM): 41%
- residual activity (MAP3K11 (human); compound 1.0 µM): 14%
- residual activity (MAP3K11 (human); compound 10.0 µM): 4%
- residual activity (NEK2 (human); compound 1.0 µM): 129%
- residual activity (NEK2 (human); compound 10.0 µM): 95%
- residual activity (HIPK1 (human); compound 1.0 µM): 81%
- residual activity (HIPK1 (human); compound 10.0 µM): 27%
- residual activity (BTK (human); compound 1.0 µM): 95%
- residual activity (BTK (human); compound 10.0 µM): 62%
- residual activity (DYRK2 (human); compound 1.0 µM): 12%
- residual activity (DYRK2 (human); compound 10.0 µM): 2%
- residual activity ([2]; compound 1.0 µM): 92%
- residual activity ([2]; compound 10.0 µM): 68%
- residual activity (PIM3 (human); compound 1.0 µM): 33%
- residual activity (PIM3 (human); compound 10.0 µM): 11%
- residual activity (EEF2K (human); compound 1.0 µM): 94%
- residual activity (EEF2K (human); compound 10.0 µM): 96%
- residual activity (JAK2 JH1 JH2 (human); compound 1.0 µM): 26%
- residual activity (JAK2 JH1 JH2 (human); compound 10.0 µM): 6%
- residual activity (CAMKK2 (human); compound 1.0 µM): 45%
- residual activity (CAMKK2 (human); compound 10.0 µM): 22%
- residual activity (MAPK13 (human); compound 1.0 µM): 98%
- residual activity (MAPK13 (human); compound 10.0 µM): 26%
- residual activity (CSK (human); compound 1.0 µM): 91%
- residual activity (CSK (human); compound 10.0 µM): 64%
- residual activity (BRSK1 (human); compound 1.0 µM): 48%
- residual activity (BRSK1 (human); compound 10.0 µM): 29%
- residual activity ([3]; compound 1.0 µM): 40%
- residual activity ([3]; compound 10.0 µM): 10%
- residual activity (INSR (human); compound 1.0 µM): 89%
- residual activity (INSR (human); compound 10.0 µM): 27%
- residual activity (MAP2K1 (human); compound 1.0 µM): 67%
- residual activity (MAP2K1 (human); compound 10.0 µM): 26%
- residual activity (EPHA2 (human); compound 1.0 µM): 78%
- residual activity (EPHA2 (human); compound 10.0 µM): 42%
- residual activity (MAP2K6 (human); compound 1.0 µM): 80%
- residual activity (MAP2K6 (human); compound 10.0 µM): 27%
- residual activity (MAPKAPK5 (human); compound 1.0 µM): 78%
- residual activity (MAPKAPK5 (human); compound 10.0 µM): 39%
- residual activity (PAK6 (human); compound 1.0 µM): 91%
- residual activity (PAK6 (human); compound 10.0 µM): 54%
- residual activity (GSK3B (human); compound 1.0 µM): 87%
- residual activity (GSK3B (human); compound 10.0 µM): 51%
- residual activity (LCK (mouse); compound 1.0 µM): 95%
- residual activity (LCK (mouse); compound 10.0 µM): 90%

Structure (SMILES): Cc1nc(N)sc1-c1csc(Nc2cccnc2)n1
- residual activity (FGFR1 (human); compound 10.0 µM): 47%
- residual activity (FGFR1 (human); compound 100.0 µM): 23%
- residual activity (PAK4 (human); compound 10.0 µM): 74%
- residual activity (EPHB2 (human); compound 10.0 µM): 93%
- residual activity (IRAK4 (human); compound 10.0 µM): 74%
- residual activity (AURKB (human); compound 10.0 µM): 70%
- residual activity (AURKB (human); compound 100.0 µM): 3%
- residual activity (MKNK1 (human); compound 10.0 µM): 35%
- residual activity ([1]; compound 10.0 µM): 64%
- residual activity (IGF1R (human); compound 10.0 µM): 70%
- residual activity (TTK (human); compound 10.0 µM): 53%
- residual activity (TTK (human); compound 100.0 µM): 35%
- residual activity (MAP2K2 (human); compound 10.0 µM): 87%
- residual activity (DAPK1 (human); compound 10.0 µM): 71%
- residual activity (SRPK1 (human); compound 10.0 µM): 82%
- residual activity (TBK1 (human); compound 10.0 µM): 75%
- residual activity (MAP3K11 (human); compound 10.0 µM): 47%
- residual activity (MAP3K11 (human); compound 100.0 µM): 9%
- residual activity (NEK2 (human); compound 10.0 µM): 42%
- residual activity (NEK2 (human); compound 100.0 µM): 14%
- residual activity (HIPK1 (human); compound 10.0 µM): 84%
- residual activity (BTK (human); compound 10.0 µM): 26%
- residual activity (BTK (human); compound 100.0 µM): 38%
- residual activity (DYRK2 (human); compound 10.0 µM): 50%
- residual activity (DYRK2 (human); compound 100.0 µM): 8%
- residual activity ([2]; compound 10.0 µM): 89%
- residual activity (PIM3 (human); compound 10.0 µM): 17%
- residual activity (PIM3 (human); compound 100.0 µM): 10%
- residual activity (EEF2K (human); compound 10.0 µM): 77%
- residual activity (JAK2 JH1 JH2 (human); compound 10.0 µM): 63%
- residual activity (CAMKK2 (human); compound 10.0 µM): 62%
- residual activity (MAPK13 (human); compound 10.0 µM): 88%
- residual activity (MAPK13 (human); compound 100.0 µM): 46%
- residual activity (CSK (human); compound 10.0 µM): 83%
- residual activity (BRSK1 (human); compound 10.0 µM): 80%
- residual activity ([3]; compound 10.0 µM): 91%
- residual activity (INSR (human); compound 10.0 µM): 34%
- residual activity (INSR (human); compound 100.0 µM): 69%
- residual activity (MAP2K1 (human); compound 10.0 µM): 80%
- residual activity (EPHA2 (human); compound 10.0 µM): 103%
- residual activity (MAP2K6 (human); compound 10.0 µM): 94%
- residual activity (MAPKAPK5 (human); compound 10.0 µM): 94%
- residual activity (PAK6 (human); compound 10.0 µM): 84%
- residual activity (GSK3B (human); compound 10.0 µM): 48%
- residual activity (GSK3B (human); compound 100.0 µM): 19%
- residual activity (LCK (mouse); compound 10.0 µM): 94%
